pIC50: −log10 of the molar value. Activity calls are given as the source filed them. The rule behind the calls is not given here. Numbered stars: 1 amine (or outer) side, 2 acyl side, 3 side chain; on linkers, the order of the positions; unused ones are H or OH. Bridge positions count the residues as written; N and C are the ends. Square brackets hold non-standard residues; d marks the D form. Peptide text beside a SMILES is read from it. I, II: the chains in the order shown. ξ: configuration not given here. X1 = O=C([C@H](Cc1c[nH]c2ccccc12)N(c1ccc([N+](=O)[O-])c2nonc12)[*:1])[*:2]; ξN = NC(=O)CC(N)C(=O)O
How the values were obtained:
HepG2 [1] = test: Cytotoxicity against human HepG2 cells assessed as cell viability at 30 uM measured after 24 hrs by CCK-8 assay relative to control; format: functional; conditions: read-out: Activity
A549 [2] = test: Cytotoxicity against human A549 cells assessed as cell viability at 30 uM measured after 24 hrs by CCK-8 assay relative to control; format: functional; conditions: read-out: Activity
HepG2 [3] = test: Cytotoxicity against human HepG2 cells assessed as reduction in cell viability measured after 24 hrs by CCK-8 assay; format: functional, cell-based; conditions: for pIC50: HepG2, 24 h
[4] = Cytotoxicity against human L02 cells assessed as reduction in cell viability measured after 24 hrs by CCK-8 assay; format: toxicity, cell-based
A549 [5] = test: Cytotoxicity against human A549 cells assessed as reduction in cell viability measured after 24 hrs by CCK-8 assay; format: functional, cell-based; conditions: for pIC50: A549, 24 h
[6] = Cytotoxicity against human BEAS-2B cells assessed as reduction in cell viability measured after 24 hrs by CCK-8 assay; format: toxicity, cell-based
HepG2 [7] = test: Induction of apoptosis in human HepG2 cells assessed as viable cells at 15 uM measured after 24 hrs by Annexin V-FITC/propidium iodide staining based flow cytometry relative to control; format: functional; conditions: read-out: Activity
A549 [8] = test: Induction of apoptosis in human A549 cells assessed as viable cells at 15 uM measured after 24 hrs by Annexin V-FITC/propidium iodide staining based flow cytometry relative to control; format: functional; conditions: read-out: Activity
L02 = test: Induction of apoptosis in human L02 cells assessed as reduction in viable cells at 15 uM measured after 24 hrs by Annexin V-FITC/propidium iodide staining based flow cytometry; format: toxicity, cell-based; conditions: l02, 24 h
BEAS-2B = test: Induction of apoptosis in human BEAS-2B cells assessed as reduction in viable cells at 15 uM measured after 24 hrs by Annexin V-FITC/propidium iodide staining based flow cytometry; format: toxicity, cell-based
HepG2 [9] = test: Induction of morphological changes in human HepG2 cells assessed as decrease in cell number at 15 uM measured after 24 hrs by high-throughput microscopy; format: functional, cell-based
HepG2 [10] = test: Induction of morphological changes in human HepG2 cells assessed as appearance of abnormal cell morphology at 15 uM measured after 24 hrs by high-throughput microscopy; format: functional, cell-based
HepG2 [11] = test: Induction of apoptosis in human HepG2 cells assessed as increase in late apoptotic cells at 15 uM measured after 24 hrs by Annexin V-FITC/propidium iodide staining based flow cytometry; format: functional, cell-based
HepG2 [12] = test: Induction of apoptosis in human HepG2 cells assessed as increase in necrotic cells at 15 uM measured after 24 hrs by Annexin V-FITC/propidium iodide staining based flow cytometry; format: functional, cell-based
A549 [13] = test: Induction of apoptosis in human A549 cells assessed as increase in late apoptotic cells at 15 uM measured after 24 hrs by Annexin V-FITC/propidium iodide staining based flow cytometry; format: functional, cell-based
A549 [14] = test: Induction of apoptosis in human A549 cells assessed as increase in necrotic cells at 15 uM measured after 24 hrs by Annexin V-FITC/propidium iodide staining based flow cytometry; format: functional, cell-based
A549 [15] = test: Induction of cell membrane disruption in human A549 cells assessed as increase in LDH release at 15 uM measured after 1 hr by LDH releasing reagent based assay
HepG2 [16] = test: Induction of cell membrane disruption in human HepG2 cells assessed as increase in LDH release at 15 uM measured after 1 hr by LDH releasing reagent based assay
[17] = Drug uptake in human HepG2 cells at 15 uM measured after 1 hr by Hoechst 33258 staining based confocal laser scanning microscopy; format: ADME, cell-based; conditions: hepg2, 1 h
[18] = Drug uptake in human A549 cells at 15 uM measured after 1 hr by Hoechst 33258 staining based confocal laser scanning microscopy; format: ADME, cell-based; conditions: a549, 1 h
[19] = Drug uptake in human L02 cells at 15 uM measured after 1 hr by Hoechst 33258 staining based confocal laser scanning microscopy; format: ADME, cell-based; conditions: l02, 1 h
[20] = Drug uptake in human BEAS-2B cells at 15 uM measured after 1 hr by Hoechst 33258 staining based confocal laser scanning microscopy; format: ADME, cell-based
[21] = Drug uptake in human HepG2 cells at 15 uM measured after 1 hr by Hoechst 33258 staining based flow cyotmetry; format: ADME, cell-based; conditions: hepg2, 1 h
[22] = Drug uptake in human A549 cells at 15 uM measured after 1 hr by Hoechst 33258 staining based flow cyotmetry; format: ADME, cell-based; conditions: a549, 1 h
[23] = Drug uptake in human L02 cells at 15 uM measured after 1 hr by Hoechst 33258 staining based flow cyotmetry; format: ADME, cell-based; conditions: l02, 1 h
[24] = Drug uptake in human BEAS-2B cells at 15 uM measured after 1 hr by Hoechst 33258 staining based flow cyotmetry; format: ADME, cell-based

| Molecule | pIC50 (HepG2 [3]) | IC50 at 24 h [4] [µM] | pIC50 (A549 [5]) | IC50 at 24 h [6] [µM] | Activity (L02) | Activity (BEAS-2B) | Activity (HepG2 [9]) | Activity (HepG2 [10]) | Activity (HepG2 [11]) | Activity (HepG2 [12]) | Activity (A549 [13]) | Activity (A549 [14]) | Activity (A549 [15]) | Activity (HepG2 [16]) | other results |
| --- | --- | --- | --- | --- | --- | --- | --- | --- | --- | --- | --- | --- | --- | --- | --- |
| N=C(N)NCCC[C@H](NC(=O)[C@H](CCCNC(=N)N)NC(=O)[C@H](CCCNC(=N)N)NC(=O)[C@H](CCC(N)=O)NC(=O)[C@H](CCCNC(=N)N)NC(=O)[C@H](CCCNC(=N)N)NC(=O)[C@H](CCCCN)NC(=O)[C@H](CCCCN)NC(=O)[C@H](CCCNC(=N)N)NC(=O)CNC(=O)[C@@H](N)Cc1ccc(O)cc1)C(=O)O | < 4.00 | > 100 | < 4.00 | > 100 | Non-Toxic | Non-Toxic |  |  |  |  |  |  |  |  | viability at 30 µM (HepG2 [1]): > 90%; viability at 30 µM (A549 [2]): > 90%; viability at 15 µM (HepG2 [7]): > 80%; viability at 15 µM (A549 [8]): > 80% |
| CC(C)C[C@H](NC(=O)[C@H](CCCCN)NC(=O)CNC(=O)[C@H](CC(C)C)NC(=O)[C@@H](NC(=O)[C@@H](NC(=O)[C@H](CC(C)C)NC(=O)[C@H](CCC(=O)O)NC(=O)[C@@H](N)Cc1c[nH]c2ccccc12)C(C)C)C(C)C)C(=O)N[C@@H](CC(C)C)C(=O)N[C@@H](CC(C)C)C(=O)N[C@@H](Cc1c[nH]cn1)C(=O)N[C@@H](Cc1c[nH]cn1)C(=O)N[C@@H](CC(C)C)C(=O)N[C@@H](CC(C)C)C(=O)N[C@@H](Cc1c[nH]cn1)C(=O)N[C@@H](Cc1c[nH]cn1)C(=O)N[C@@H](CC(C)C)C(=O)N[C@@H](CC(C)C)C(=O)N[C@@H](Cc1c[nH]cn1)C(=O)N[C@@H](Cc1c[nH]cn1)C(=O)N[C@@H](CCCNC(=N)N)C(=O)N[C@@H](CCCNC(=N)N)C(=O)N[C@@H](CCCNC(=N)N)C(=O)N[C@@H](CCCNC(=N)N)C(=O)N[C@@H](CCCNC(=N)N)C(=O)N[C@@H](CCCNC(=N)N)C(=O)N[C@@H](CCCNC(=N)N)C(=O)N[C@@H](CCCNC(=N)N)C(=O)N[C@@H](CCCNC(=N)N)C(=O)O (H-WELVVLGKLLLHHLLHHLLHHRRRRRRRRR-OH) | 4.99 | 15.6 | 4.98 | 18.5 | Non-Toxic | Non-Toxic | Active | Active | Active | Active | Active | Active | Active | Active |  |
| CC(C)C[C@H](NC(=O)[C@H](CCCCN)NC(=O)CNC(=O)[C@H](CC(C)C)NC(=O)[C@@H](NC(=O)[C@@H](NC(=O)[C@H](CC(C)C)NC(=O)[C@H](CCC(=O)O)NC(=O)[C@@H](N)Cc1c[nH]c2ccccc12)C(C)C)C(C)C)C(=O)N[C@@H](CCCNC(=N)N)C(=O)N[C@@H](CCCNC(=N)N)C(=O)N[C@@H](CCCNC(=N)N)C(=O)N[C@@H](CCCNC(=N)N)C(=O)N[C@@H](CCCNC(=N)N)C(=O)N[C@@H](CCCNC(=N)N)C(=O)N[C@@H](CCCNC(=N)N)C(=O)N[C@@H](CCCNC(=N)N)C(=O)N[C@@H](CCCNC(=N)N)C(=O)O (H-WELVVLGKLRRRRRRRRR-OH) | 4.84 | 21.6 | 4.76 | 22.8 | Non-Toxic | Non-Toxic | Active | Active | Active | Active | Active | Active | Active | Active | Activity (HepG2 [3]; DDE = dose-dependent effect): Dde; Activity (A549 [5]; DDE = dose-dependent effect): Dde |
| N=C(N)NCCC[C@H](NC(=O)[C@H](CCCNC(=N)N)NC(=O)[C@H](CCCNC(=N)N)NC(=O)[C@H](CCCNC(=N)N)NC(=O)[C@H](CCCNC(=N)N)NC(=O)[C@H](CCCNC(=N)N)NC(=O)[C@H](CCCNC(=N)N)NC(=O)[C@H](CCCNC(=N)N)NC(=O)[C@@H](N)CCCNC(=N)N)C(=O)O | < 4.00 | > 100 | < 4.00 | > 100 | Non-Toxic | Non-Toxic |  |  |  |  |  |  |  |  | viability at 30 µM (HepG2 [1]): > 90%; viability at 30 µM (A549 [2]): > 90%; viability at 15 µM (HepG2 [7]): > 80%; viability at 15 µM (A549 [8]): > 80% |
| I: H-WELVVLGKLGLRKRLRKFRNKIKEK / II: H-GLRKRLRKFR[ξN]KIKEK-OH (amide I:C-II:4) | 4.88 | 18.4 | 4.88 | 19.8 | Non-Toxic | Non-Toxic | Active | Active | Active | Active | Active | Active | Active | Active |  |
| CC(C)C[C@H](NC(=O)[C@H](CCCCN)NC(=O)CNC(=O)[C@H](CC(C)C)NC(=O)[C@@H](NC(=O)[C@@H](NC(=O)[C@H](CC(C)C)NC(=O)[C@H](CCC(=O)O)NC(=O)[C@H](Cc1c[nH]c2ccccc12)Nc1ccc([N+](=O)[O-])c2nonc12)C(C)C)C(C)C)C(=O)N[C@@H](CC(C)C)C(=O)N[C@@H](CC(C)C)C(=O)N[C@@H](Cc1c[nH]cn1)C(=O)N[C@@H](Cc1c[nH]cn1)C(=O)N[C@@H](CC(C)C)C(=O)N[C@@H](CC(C)C)C(=O)N[C@@H](Cc1c[nH]cn1)C(=O)N[C@@H](Cc1c[nH]cn1)C(=O)N[C@@H](CC(C)C)C(=O)N[C@@H](CC(C)C)C(=O)N[C@@H](Cc1c[nH]cn1)C(=O)N[C@@H](Cc1c[nH]cn1)C(=O)N[C@@H](CCCNC(=N)N)C(=O)N[C@@H](CCCNC(=N)N)C(=O)N[C@@H](CCCNC(=N)N)C(=O)N[C@@H](CCCNC(=N)N)C(=O)N[C@@H](CCCNC(=N)N)C(=O)N[C@@H](CCCNC(=N)N)C(=O)N[C@@H](CCCNC(=N)N)C(=O)N[C@@H](CCCNC(=N)N)C(=O)N[C@@H](CCCNC(=N)N)C(=O)O (H-[X1]ELVVLGKLLLHHLLHHLLHHRRRRRRRRR-OH) |  |  |  |  |  |  |  |  |  |  |  |  |  |  | Drug uptake [17]: Active; Drug uptake [18]: Active; Drug uptake [19]: Active; Drug uptake [20]: Active; Drug uptake [21]: Active; Drug uptake [22]: Active; Drug uptake [23]: Active; Drug uptake [24]: Active |
| CC(C)C[C@H](NC(=O)[C@H](CCCCN)NC(=O)CNC(=O)[C@H](CC(C)C)NC(=O)[C@@H](NC(=O)[C@@H](NC(=O)[C@H](CC(C)C)NC(=O)[C@H](CCC(=O)O)NC(=O)[C@@H](N)Cc1c[nH]c2ccccc12)C(C)C)C(C)C)C(=O)O (H-WELVVLGKL-OH) |  |  | 4.05 |  | Non-Toxic | Non-Toxic |  |  |  |  |  |  |  |  |  |
